Here are results for 6 molecules from article PMC9105102, “Development and Biochemical Characterization of Self-Immolative Linker Containing GnRH-III-Drug Conjugates” (International Journal of Molecular Sciences, 2022).

A value given as a limit tells only on which side of the number the result lay.

A word on the IC50: it is the point on the concentration scale where inhibition reaches its midpoint.

A short description of data set [1]: Solubility in acidic aqueous buffer (remark). Format: physicochemical. To be noted: compared with the ΔHis-D-Tic compounds.
Data set [2] relates to Panc-1 human pancreatic cancer cells. The experiment in a line: cells. In kind it is cell-based. To be noted: Panc-1 cells; treatment 24 h (Dau conjugates) or 6 h (PTX compounds), viability at 72 h; mean ± SE of two to three determinations; read-out: Panc-1 IC50. Here is the method: (§1) For cultivation of A2780 human ovarian and Panc-1 human pancreatic cancer cells, RPMI-1640 medium with 10% FBS, L-glutamine and 1% Penicillin-Streptomycin were used. Cells were cultured in appropriate plastic flasks at 37 °C (humidified atmosphere, 5% CO2/95% air).
(§2) A set-up of 96-well plates was used to study the in vitro antiproliferative activity. Therefore, 5 × 10^3 cells in 100 µL complete medium were seeded to each well. After 24 h, complete medium was removed and cells were treated with 200 µL bioconjugate solution in serum-free medium (concentration range 0.0032–50 µM, control wells were treated with serum-free medium). Medium was taken out after 6 h treatment (PTX conjugates) or 24 h (Dau conjugates), replaced by complete medium and incubation was continued. To determine the cell viability, medium was removed after 72 h and 100 µL resazurin solution [45] (10% Tox-8 in FBS-free medium) was added to each well, followed by additional incubation of 2–3 h. A Tecan infinite 200 pro microplate reader (Tecan Group Ltd., Zürich, Switzerland) was used for fluorescence detection (λEx = 560 and λEm = 590 nm). Experiments were performed at least twice, using three parallels per concentration. The cell viability (and IC50 values) was calculated with GraphPad Prism using a nonlinear regression (sigmoidal dose-response).

Data set [3] deals with A2780 human ovarian cancer cells. The experiment in a line: cells. In kind it is cell-based. To be noted: A2780 cells; treatment 24 h (Dau conjugates) or 6 h (PTX compounds), viability at 72 h; mean ± SE of two to three determinations; read-out: A2780 IC50. As to the method:
as §1, §2

Data set [4] deals with T1, GnRH-R (membranes of human pituitary) (Homo sapiens, UniProt P30968).
T1 construct: GnRH-Rs expressed on human pituitary and human prostate cancer cells; from tissue; host or cells: normal human pituitary (anterior lobe), autopsy; membrane homogenate
T1 sequence (P30968 1-328): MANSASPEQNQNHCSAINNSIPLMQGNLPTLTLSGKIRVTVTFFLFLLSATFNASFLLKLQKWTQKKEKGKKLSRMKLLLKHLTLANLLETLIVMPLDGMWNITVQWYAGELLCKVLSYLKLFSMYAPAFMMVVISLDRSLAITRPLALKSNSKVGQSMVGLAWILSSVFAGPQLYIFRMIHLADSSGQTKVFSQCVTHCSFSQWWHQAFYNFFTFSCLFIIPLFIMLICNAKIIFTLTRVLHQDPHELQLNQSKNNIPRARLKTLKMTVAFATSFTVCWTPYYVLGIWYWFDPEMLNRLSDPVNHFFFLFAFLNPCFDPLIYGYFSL
Briefly: Radioligand competition assay, displacement of [125I]-GnRH-I-[6D-Trp] (triptorelin), human pituitary membranes. In kind it is binding. As to the method:
(§3) A ligand competition assay with [^125I]-GnRH-I-[^6D-Trp] as radioligand was performed to examine the binding affinity of the GnRH-III-drug conjugates to GnRH-Rs expressed on human pituitary and human prostate cancer cells. Human prostate cancer cells were derived from patients at the time of initial surgical treatment, while tissue samples from normal human pituitary (anterior lobe) were obtained by autopsy. All subjects were informed and gave their consent for inclusion before they participated in the study. The preparation of the cell membranes was carried out according to the literature. The chloramines-T method was used to prepare radioiodinated GnRH-I agonist triptorelin which was purified by RP-HPLC [10, 38, 39, 47]. The displacement of [^125I]-GnRH-I-[^6D-Trp] was studied in an in vitro ligand competition assay to determine the binding affinities of the non-radio-labeled GnRH-III bioconjugates to GnRH-RI [10, 11, 38, 39]. Membrane homogenates containing […] protein were incubated in duplicate or triplicate with 60–80,000 cpm [^125I]-GnRH-I-[^6D-Trp] and rising concentration (1 pM—1 µM) of nonradioactive bioconjugates as competitors in a total volume of […] binding buffer. Protein concentration was determined by the method of Bradford using a Bio-Rad protein assay kit (Bio-Rad Laboratories, Hercules, CA, USA). The LIGAND-PC computerized curve-fitting program of Munson and Rodbard was used to determine the receptor binding characteristics and IC50 values.
For orientation: Loss of bound radioactivity is the signal in a displacement assay; it reports binding, not function.

Data set [5] in a line: Degradation of drug conjugates in presence of rat liver lysosomal homogenate (LC-MS). Format: in vitro ADME. To be noted: pH 5, 37 °C; for release of free Dau by lysosomal enzymes: up to 24 h; for release of free Dau by lysosomal enzymes / release of the smallest Dau-containing metabolite H-Lys(Dau-glutaryl)-OH: LC-MS. As to the method: The preparation of the rat liver lysosomal homogenate was carried out as recently reported. A Qubit Protein Assay Kit (Thermo Fischer Scientific, Waltham, MA, USA) was used to examine the concentration of the lysosomal proteins.
Initially, a stock solution of the GnRH-III-Dau conjugates in water (5 µg/µL) was prepared. For the degradation reaction, the conjugates and the lysosomal homogenate were diluted together in 0.2 M NaOAc buffer (pH 5) to a concentration of 0.25 µg/µL each. These mixtures were kept at 37 °C and at distinct time points (5 min, 1 h, 2 h, 4 h, 8 h and 24 h), 15 µL of each sample were quenched with 2 µL acetic acid and analyzed by LC-MS (System I).
The GnRH-III-PTX conjugates were dissolved in DMSO to a concentration of 10 mM. The reaction was carried out in 0.2 M NaOAc buffer (pH 5) with 10 µM conjugate and 0.025 µg/mL lysosomal homogenate. The reaction mixtures were incubated at 37 °C and aliquots of 60 μL were taken at 5 min, 1 h, 2 h, 4 h, 8 h and 24 h and quenched with 5 μL of acetic acid. The analysis of the samples was performed by LC–MS (System-II).

Data set [6] concerns the target T2, GnRH-R (membranes of human prostate cancer specimens) (Homo sapiens, UniProt P30968).
T2 construct: GnRH-Rs expressed on human pituitary and human prostate cancer cells; from tissue; host or cells: human prostate cancer specimens from patients (surgery); membrane homogenate
T2 sequence (P30968 1-328): T1 sequence (P30968 1-328)
Briefly: Radioligand competition assay, displacement of [125I]-GnRH-I-[6D-Trp] (triptorelin), human prostate cancer membranes. To be noted: mean ± SE of two to three determinations, read-out: IC50 Prostate Cancer, competitive inhibition of [125I][6D-Trp]-GnRH-I binding. As to the method: as §3

For the molecule `CCCC(=O)NCCCC[C@H](NC(=O)[C@H](Cc1c[nH]c2ccccc12)NC(=O)[C@H](Cc1c[nH]cn1)NC(=O)[C@@H]1CCC(=O)N1)C(=O)N[C@@H](Cc1c[nH]cn1)C(=O)N[C@@H](CC(=O)O)C(=O)N[C@@H](Cc1c[nH]c2ccccc12)C(=O)N[C@@H](CCCCNC(=O)CCCC(=O)N[C@H](C(=O)N[C@@H](CCCNC(N)=O)C(=O)Nc1ccc(COC(=O)N[C@H]2C[C@H](O[C@H]3C[C@](O)(C(C)=O)Cc4c(O)c5c(c(O)c43)C(=O)c3c(OC)cccc3C5=O)O[C@@H](C)[C@H]2O)cc1)C(C)C)C(=O)N1CCC[C@H]1C(=O)NCC(N)=O` [compound 10], the “solubility in acidic aqueous buffer” value in data set [1] is “better solubility”. The 50% inhibitory concentration (IC50) in data set [2] was 85.6 ± 24.3 µM; in data set [3], 11.2 ± 0.38 µM; in data set [4] it was 16.1 ± 2.03 nM; in data set [6] it was 13.7 ± 1.87 nM. The “release of free Dau by lysosomal enzymes” value in data set [5] was “release of free Dau and the formation of several peptide fragments could be confirmed”.

Regarding `CCCC(=O)NCCCC[C@H](NC(=O)[C@H](Cc1c[nH]c2ccccc12)NC(=O)[C@H](Cc1c[nH]cn1)NC(=O)[C@@H]1CCC(=O)N1)C(=O)N[C@@H](Cc1c[nH]cn1)C(=O)N[C@@H](CC(=O)O)C(=O)N[C@@H](Cc1c[nH]c2ccccc12)C(=O)N[C@@H](CCCCNC(=O)CCCC(=O)N[C@H](C(=O)N[C@@H](C)C(=O)Nc1ccc(COC(=O)N[C@H]2C[C@H](O[C@H]3C[C@](O)(C(C)=O)Cc4c(O)c5c(c(O)c43)C(=O)c3c(OC)cccc3C5=O)O[C@@H](C)[C@H]2O)cc1)C(C)C)C(=O)N1CCC[C@H]1C(=O)NCC(N)=O` [compound 12], in data set [1], the “solubility in acidic aqueous buffer” value was “better solubility”. The IC50 in data set [2] came to 56.2 ± 17.3 µM; in data set [3], 7.48 ± 0.66 µM; in data set [4] it was 17 ± 1.04 nM; in data set [6], 15.5 ± 0.83 nM. The “release of free Dau by lysosomal enzymes” value in data set [5] is “release of free Dau and the formation of several peptide fragments could be confirmed”.

With `CCCC(=O)NCCCC[C@H](NC(=O)[C@H](Cc1c[nH]c2ccccc12)NC(=O)[C@H](Cc1c[nH]cn1)NC(=O)[C@@H]1CCC(=O)N1)C(=O)N[C@@H](Cc1c[nH]cn1)C(=O)N[C@@H](CC(=O)O)C(=O)N[C@@H](Cc1c[nH]c2ccccc12)C(=O)N[C@@H](CCCCNC(=O)CCCC(=O)N[C@H](C(=O)N[C@@H](C)C(=O)Nc1ccc(COC(=O)N(C)CCN(C)C(=O)O[C@@H](C(=O)O[C@H]2C[C@@]3(O)[C@@H](OC(=O)c4ccccc4)[C@@H]4[C@]5(OC(C)=O)CO[C@@H]5C[C@H](O)[C@@]4(C)C(=O)[C@H](OC(C)=O)C(=C2C)C3(C)C)[C@@H](NC(=O)c2ccccc2)c2ccccc2)cc1)C(C)C)C(=O)N1CCC[C@H]1C(=O)NCC(N)=O` [compound 16], the IC50 in data set [2] was found to be 4.89 ± 1.08 µM; in data set [3], 0.66 ± 0.18 µM; in data set [4], 9.86 ± 0.82 nM; in data set [6], 8.47 ± 1.06 nM. For the same molecule, in data set [5] (after 5 min of incubation), the “detection of the diamine-PTX fragment” value is “could be already detected”. Besides, in data set [5] (within 24 h), the “release of the free PTX” value was “could not be detected”.

As to `CCCC(=O)NCCCC[C@H](NC(=O)[C@H](Cc1c[nH]c2ccccc12)NC(=O)[C@H](Cc1c[nH]cn1)NC(=O)[C@@H]1CCC(=O)N1)C(=O)N[C@@H](Cc1c[nH]cn1)C(=O)N[C@@H](CC(=O)O)C(=O)N[C@@H](Cc1c[nH]c2ccccc12)C(=O)N[C@@H](CCCCNC(=O)CCCC(=O)N[C@H]1C[C@H](O[C@H]2C[C@](O)(C(C)=O)Cc3c(O)c4c(c(O)c32)C(=O)c2c(OC)cccc2C4=O)O[C@@H](C)[C@H]1O)C(=O)N1CCC[C@H]1C(=O)NCC(N)=O` [compound 23], the half-maximal inhibitory concentration (IC50) in data set [2] is greater than 100 µM; in data set [3], 67.9 ± 25.4 µM; in data set [4] it was 9.7 ± 1.07 nM; in data set [6], 8.61 ± 1.08 nM. Besides, the “release of the smallest Dau-containing metabolite H-Lys(Dau-glutaryl)-OH” value in data set [5] is “confirming the release”. Further, the “release of free Dau by lysosomal enzymes” value in data set [5] is listed as “free Dau could not be detected”.

As for `CCCC(=O)NCCCC[C@H](NC(=O)[C@H]1Cc2ccccc2CN1C(=O)[C@@H]1CCC(=O)N1)C(=O)N[C@@H](Cc1c[nH]cn1)C(=O)N[C@@H](CC(=O)O)C(=O)N[C@@H](Cc1c[nH]c2ccccc12)C(=O)N[C@@H](CCCCNC(=O)CCCC(=O)N[C@H]1C[C@H](O[C@H]2C[C@](O)(C(C)=O)Cc3c(O)c4c(c(O)c32)C(=O)c2c(OC)cccc2C4=O)O[C@@H](C)[C@H]1O)C(=O)N1CCC[C@H]1C(=O)NCC(N)=O` [compound 24], the IC50 in data set [2] was greater than 100 µM; in data set [3], 48.14 ± 0.47 µM; in data set [4] it was 36.3 ± 3.17 nM; in data set [6], 42.7 ± 7.04 nM. Moreover, in data set [5], the “release of the smallest Dau-containing metabolite H-Lys(Dau-glutaryl)-OH” value is on record as “confirming the release”. The “release of free Dau by lysosomal enzymes” value in data set [5] is on record as “free Dau could not be detected”.

Take `CCCC(=O)NCCCC[C@H](NC(=O)[C@H]1Cc2ccccc2CN1C(=O)[C@@H]1CCC(=O)N1)C(=O)N[C@@H](Cc1c[nH]cn1)C(=O)N[C@@H](CC(=O)O)C(=O)N[C@@H](Cc1c[nH]c2ccccc12)C(=O)N[C@@H](CCCCNC(=O)CCCC(=O)N(C)CCN(C)C(=O)O[C@@H](C(=O)O[C@H]1C[C@@]2(O)[C@@H](OC(=O)c3ccccc3)[C@@H]3[C@]4(OC(C)=O)CO[C@@H]4C[C@H](O)[C@@]3(C)C(=O)[C@H](OC(C)=O)C(=C1C)C2(C)C)[C@@H](NC(=O)c1ccccc1)c1ccccc1)C(=O)N1CCC[C@H]1C(=O)NCC(N)=O` [compound 26]: the IC50 in data set [2] is greater than 100 µM; in data set [3], greater than 100 µM; in data set [4] it was 23.4 ± 1.67 nM; in data set [6] it was 22.2 ± 0.96 nM. Further, the “detection of the diamine-PTX fragment” value in data set [5] (even after 24 h of incubation) was “could not be detected”.
